Reference: PubChem BioAssay (NCI)
Values joined by “and” are separate entries in the source; they are usually repeats but may differ in a detail not shown here. Equal values may be shown once.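 Test compounds were applied to cells in 96-well plates for 48 hours at 5 doses. At the GI50, growth is halved. TGI is the concentration that stops growth completely.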

Key:
Assay in all cases: NCI anticancer screen, dose series, 48 h
M14 melanoma = test system: M14 melanoma
LXFL 529 NSCLC = test system: LXFL 529 NSCLC
DMS 114 small cell lung = test system: DMS 114 small cell lung
KM20L2 colon = test system: KM20L2 colon
MDA-MB-231 breast = test system: MDA-MB-231 breast
PC-3 prostate = test system: PC-3 prostate
M19-MEL melanoma = test system: M19-MEL melanoma
SN12C renal = test system: SN12C renal
SF-268 CNS = test system: SF-268 CNS
SN12K1 renal = test system: SN12K1 renal
LOX IMVI melanoma = test system: LOX IMVI melanoma
NCI-H460 lung = test system: NCI-H460 lung
SF-539 CNS = test system: SF-539 CNS
KM12 colon = test system: KM12 colon
HL-60(TB) leukemia = test system: HL-60(TB) leukemia
HOP-18 NSCLC = test system: HOP-18 NSCLC
T-47D breast = test system: T-47D breast
786-0 renal = test system: 786-0 renal
IGROV1 ovarian = test system: IGROV1 ovarian
NCI-H23 lung = test system: NCI-H23 lung
OVCAR-8 ovarian = test system: OVCAR-8 ovarian
HCC-2998 colon = test system: HCC-2998 colon
CCRF-CEM leukemia = test system: CCRF-CEM leukemia
MOLT-4 leukemia = test system: MOLT-4 leukemia
SK-OV-3 ovarian = test system: SK-OV-3 ovarian
U251 CNS = test system: U251 CNS
SK-MEL-28 melanoma = test system: SK-MEL-28 melanoma
TK-10 renal = test system: TK-10 renal
SW-620 colon = test system: SW-620 colon
HOP-92 NSCLC = test system: HOP-92 NSCLC
MCF7 breast = test system: MCF7 breast
DU-145 prostate = test system: DU-145 prostate
DLD-1 colon = test system: DLD-1 colon
SNB-75 CNS = test system: SNB-75 CNS
DMS 273 small cell lung = test system: DMS 273 small cell lung
HS 578T breast = test system: HS 578T breast
UACC-257 melanoma = test system: UACC-257 melanoma
SR leukemia = test system: SR leukemia
MALME-3M melanoma = test system: MALME-3M melanoma
EKVX NSCLC = test system: EKVX NSCLC
COLO 205 colon = test system: COLO 205 colon
SNB-78 CNS = test system: SNB-78 CNS
SF-295 CNS = test system: SF-295 CNS
OVCAR-4 ovarian = test system: OVCAR-4 ovarian
A549 NSCLC = test system: A549 NSCLC
UACC-62 melanoma = test system: UACC-62 melanoma
UO-31 renal = test system: UO-31 renal
HOP-62 NSCLC = test system: HOP-62 NSCLC
NCI-H522 lung = test system: NCI-H522 lung
CAKI-1 renal = test system: CAKI-1 renal
HCT-116 colon = test system: HCT-116 colon
HT29 colon = test system: HT29 colon
BT-549 breast = test system: BT-549 breast
NCI/ADR-RES ovarian = test system: NCI/ADR-RES ovarian
HCT-15 colon = test system: HCT-15 colon
SK-MEL-5 melanoma = test system: SK-MEL-5 melanoma
RPMI-8226 leukemia = test system: RPMI-8226 leukemia
MDA-MB-435 = test system: MDA-MB-435
OVCAR-3 ovarian = test system: OVCAR-3 ovarian
SNB-19 CNS = test system: SNB-19 CNS
A498 renal = test system: A498 renal
K-562 leukemia = test system: K-562 leukemia
NCI-H226 lung = test system: NCI-H226 lung
OVCAR-5 ovarian = test system: OVCAR-5 ovarian
RXF 393 renal = test system: RXF 393 renal
SK-MEL-2 melanoma = test system: SK-MEL-2 melanoma
ACHN renal = test system: ACHN renal
RXF-631 renal = test system: RXF-631 renal
XF 498 CNS = test system: XF 498 CNS

C/C(=N\NC(=S)N1CCN(C2CCCCCC2)CC1)c1ccccn1
GI50 (M14 melanoma): < 1 nM | TGI (M14 melanoma): 2850 nM and 1200 nM | TGI (LXFL 529 NSCLC): 2670 nM | GI50 (DMS 114 small cell lung): < 1 nM | TGI (DMS 114 small cell lung): 46.1 nM and < 40.8 nM | GI50 (KM20L2 colon): 3830 nM | TGI (KM20L2 colon): 8960 nM and 2070 nM | TGI (MDA-MB-231 breast): 2850 nM | TGI (PC-3 prostate): 2070 nM | GI50 (M19-MEL melanoma): 928 nM | TGI (M19-MEL melanoma): 3370 nM | GI50 (SN12C renal): 2020 nM | TGI (SN12C renal): 2960 nM | TGI (SF-268 CNS): 5500 nM | TGI (SN12K1 renal): 1560 nM | GI50 (LOX IMVI melanoma): 17.3 nM | TGI (LOX IMVI melanoma): 5290 nM and 1830 nM | TGI (NCI-H460 lung): 1450 nM | GI50 (SF-539 CNS): 29.4 nM | TGI (SF-539 CNS): 2500 nM and 2010 nM | GI50 (KM12 colon): 22.9 nM | TGI (KM12 colon): 3130 nM | GI50 (HL-60(TB) leukemia): < 1 nM | GI50 (HOP-18 NSCLC): 422 nM | TGI (HOP-18 NSCLC): 7890 nM | TGI (T-47D breast): 2220 nM | GI50 (786-0 renal): 12.1 nM | TGI (786-0 renal): 3580 nM and 1950 nM | GI50 (IGROV1 ovarian): < 1 nM | TGI (IGROV1 ovarian): 3700 nM | TGI (NCI-H23 lung): 5770 nM | GI50 (OVCAR-8 ovarian): < 1 nM | TGI (OVCAR-8 ovarian): 7940 nM and 2630 nM | GI50 (HCC-2998 colon): 1400 nM | TGI (HCC-2998 colon): 3300 nM and 2080 nM | GI50 (CCRF-CEM leukemia): < 1 nM | TGI (CCRF-CEM leukemia): 291 nM and 2400 nM | GI50 (MOLT-4 leukemia): < 1 nM | TGI (MOLT-4 leukemia): 1520 nM and 3720 nM | TGI (SK-OV-3 ovarian): 2960 nM | GI50 (U251 CNS): < 1 nM | TGI (U251 CNS): 3000 nM and 2100 nM | GI50 (SK-MEL-28 melanoma): 4080 nM | TGI (SK-MEL-28 melanoma): 2250 nM | GI50 (TK-10 renal): 420 nM | TGI (TK-10 renal): 3340 nM | GI50 (SW-620 colon): 407 nM | TGI (SW-620 colon): 3830 nM and 1910 nM | GI50 (HOP-92 NSCLC): 7.88 nM | TGI (HOP-92 NSCLC): 3050 nM | TGI (MCF7 breast): 2050 nM | TGI (DU-145 prostate): 2440 nM | GI50 (DLD-1 colon): < 1 nM | TGI (DLD-1 colon): 1960 nM | TGI (SNB-75 CNS): 5090 nM | GI50 (DMS 273 small cell lung): < 1 nM | TGI (DMS 273 small cell lung): 8260 nM and 2190 nM | TGI (HS 578T breast): 4630 nM | GI50 (UACC-257 melanoma): < 1 nM | TGI (UACC-257 melanoma): 1210 nM | TGI (SR leukemia): 1060 nM | GI50 (MALME-3M melanoma): 38.2 nM | TGI (MALME-3M melanoma): 3090 nM | TGI (EKVX NSCLC): 2860 nM | TGI (COLO 205 colon): 1480 nM | GI50 (SNB-78 CNS): 4580 nM | TGI (SNB-78 CNS): 19000 nM | GI50 (SF-295 CNS): 3.02 nM | TGI (SF-295 CNS): 5670 nM and 2910 nM | TGI (OVCAR-4 ovarian): 3120 nM | TGI (A549 NSCLC): 1860 nM | TGI (UACC-62 melanoma): 1950 nM | GI50 (UO-31 renal): 1350 nM | TGI (UO-31 renal): 3750 nM and 1500 nM | GI50 (HOP-62 NSCLC): 19.8 nM and < 15.6 nM | TGI (HOP-62 NSCLC): 1410 nM | GI50 (NCI-H522 lung): < 1 nM | TGI (NCI-H522 lung): 120 nM and 267 nM | GI50 (CAKI-1 renal): 155 nM | TGI (CAKI-1 renal): 3500 nM | GI50 (HCT-116 colon): < 1 nM | TGI (HCT-116 colon): 1650 nM | TGI (HT29 colon): 1840 nM | TGI (BT-549 breast): 2780 nM | TGI (NCI/ADR-RES ovarian): 676 nM | GI50 (HCT-15 colon): < 1 nM | TGI (HCT-15 colon): 3550 nM and 2100 nM | GI50 (SK-MEL-5 melanoma): 20.4 nM | TGI (SK-MEL-5 melanoma): 8380 nM and 1010 nM | GI50 (RPMI-8226 leukemia): < 1 nM | TGI (MDA-MB-435): 2000 nM | TGI (OVCAR-3 ovarian): 1740 nM | GI50 (SNB-19 CNS): 3170 nM | TGI (SNB-19 CNS): 8300 nM | TGI (A498 renal): 3760 nM | GI50 (K-562 leukemia): < 1 nM | TGI (K-562 leukemia): 1670 nM and 970 nM | GI50 (NCI-H226 lung): 2880 nM | TGI (NCI-H226 lung): 2700 nM | TGI (OVCAR-5 ovarian): 3010 nM | GI50 (RXF 393 renal): 2450 nM | TGI (RXF 393 renal): 2500 nM | GI50 (SK-MEL-2 melanoma): 2020 nM | TGI (SK-MEL-2 melanoma): 9660 nM and 3160 nM | GI50 (ACHN renal): 1.21 nM | TGI (ACHN renal): 2700 nM

Cc1cc(Cl)ccc1NC(=O)CCCC(=O)C1CCC/C1=N\NC(=O)CC#N (stereo not given)
TGI (M14 melanoma): > 100000 nM | TGI (LXFL 529 NSCLC): > 100000 nM | TGI (DMS 114 small cell lung): > 100000 nM | TGI (KM20L2 colon): > 100000 nM | TGI (M19-MEL melanoma): > 100000 nM | TGI (SN12C renal): > 100000 nM | TGI (SF-268 CNS): > 100000 nM | TGI (NCI-H460 lung): > 100000 nM | TGI (SF-539 CNS): > 100000 nM | TGI (KM12 colon): > 100000 nM | TGI (HL-60(TB) leukemia): > 100000 nM | TGI (HOP-18 NSCLC): 97900 nM | TGI (786-0 renal): > 100000 nM | TGI (IGROV1 ovarian): > 100000 nM | TGI (NCI-H23 lung): > 100000 nM | TGI (OVCAR-8 ovarian): > 100000 nM | TGI (CCRF-CEM leukemia): > 100000 nM | TGI (MOLT-4 leukemia): > 100000 nM | TGI (SK-OV-3 ovarian): > 100000 nM | TGI (U251 CNS): > 100000 nM | TGI (SK-MEL-28 melanoma): > 100000 nM | TGI (TK-10 renal): > 100000 nM | TGI (SW-620 colon): > 100000 nM | TGI (HOP-92 NSCLC): > 100000 nM | TGI (DLD-1 colon): > 100000 nM | TGI (SNB-75 CNS): > 100000 nM | TGI (DMS 273 small cell lung): > 100000 nM | TGI (RXF-631 renal): > 100000 nM | TGI (UACC-257 melanoma): > 100000 nM | TGI (MALME-3M melanoma): > 100000 nM | TGI (EKVX NSCLC): > 100000 nM | TGI (COLO 205 colon): > 100000 nM | TGI (SNB-78 CNS): > 100000 nM | TGI (SF-295 CNS): > 100000 nM | TGI (OVCAR-4 ovarian): > 100000 nM | TGI (A549 NSCLC): > 100000 nM | TGI (UACC-62 melanoma): > 100000 nM | TGI (XF 498 CNS): > 100000 nM | TGI (UO-31 renal): > 100000 nM | TGI (NCI-H522 lung): > 100000 nM | TGI (CAKI-1 renal): > 100000 nM | TGI (HCT-116 colon): > 100000 nM | TGI (HT29 colon): > 100000 nM | TGI (HCT-15 colon): > 100000 nM | TGI (SK-MEL-5 melanoma): > 100000 nM | TGI (RPMI-8226 leukemia): > 100000 nM | TGI (OVCAR-3 ovarian): > 100000 nM | TGI (SNB-19 CNS): > 100000 nM | TGI (A498 renal): > 100000 nM | TGI (K-562 leukemia): > 100000 nM | TGI (NCI-H226 lung): > 100000 nM | TGI (OVCAR-5 ovarian): > 100000 nM | TGI (SK-MEL-2 melanoma): > 100000 nM | TGI (ACHN renal): > 100000 nM
